# Test results from ChEMBL document CHEMBL4419163, “Assays for identifying compounds that modulate bitter taste” (2014).
# Columns and labels:
# Format in all cases: functional, cell-based
# [1] = biological target: T1, Taste receptor type 2 member 8 (Homo sapiens) (UniProt Q9NYW2); assay: Agonist activity at human TAS2R8 expressed in HEK293T cells co-expressing Galpha15 assessed as increase in intracellular calcium level at 20 mM by Calcium-3 dye based fluorescence assay relative to control
# T1 sequence (whole entry): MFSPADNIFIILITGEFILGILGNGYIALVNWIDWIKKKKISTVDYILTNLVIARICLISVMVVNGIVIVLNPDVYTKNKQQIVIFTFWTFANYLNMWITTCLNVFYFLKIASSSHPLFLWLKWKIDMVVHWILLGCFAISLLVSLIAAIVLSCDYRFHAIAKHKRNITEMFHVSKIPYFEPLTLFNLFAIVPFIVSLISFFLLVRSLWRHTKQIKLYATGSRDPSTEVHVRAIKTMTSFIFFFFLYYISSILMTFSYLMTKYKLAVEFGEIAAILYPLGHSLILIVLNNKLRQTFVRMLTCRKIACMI
# [2] = biological target: T2, Taste receptor type 2 member 38 (Homo sapiens) (UniProt P59533); assay: Agonist activity at human TAS2R38 expressed in HEK293T cells co-expressing Galpha15 assessed as increase in intracellular calcium level at 20 mM by Calcium-3 dye based fluorescence assay relative to control
# T2 sequence (whole entry): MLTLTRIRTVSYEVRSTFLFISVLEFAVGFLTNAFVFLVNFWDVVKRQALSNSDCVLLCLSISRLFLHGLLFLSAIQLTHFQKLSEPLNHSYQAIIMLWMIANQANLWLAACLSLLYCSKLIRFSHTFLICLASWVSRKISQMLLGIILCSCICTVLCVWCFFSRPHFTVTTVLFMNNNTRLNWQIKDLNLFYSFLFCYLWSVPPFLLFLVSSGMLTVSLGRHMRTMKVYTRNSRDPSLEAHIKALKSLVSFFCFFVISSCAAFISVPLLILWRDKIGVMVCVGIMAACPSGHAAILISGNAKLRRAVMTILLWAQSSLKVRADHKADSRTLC
# [3] = biological target: T3, Taste receptor type 2 member 46 (Homo sapiens) (UniProt P59540); assay: Agonist activity at human TAS2R46 expressed in HEK293T cells co-expressing Galpha15 assessed as increase in intracellular calcium level at 20 mM by Calcium-3 dye based fluorescence assay relative to control
# T3 sequence (whole entry): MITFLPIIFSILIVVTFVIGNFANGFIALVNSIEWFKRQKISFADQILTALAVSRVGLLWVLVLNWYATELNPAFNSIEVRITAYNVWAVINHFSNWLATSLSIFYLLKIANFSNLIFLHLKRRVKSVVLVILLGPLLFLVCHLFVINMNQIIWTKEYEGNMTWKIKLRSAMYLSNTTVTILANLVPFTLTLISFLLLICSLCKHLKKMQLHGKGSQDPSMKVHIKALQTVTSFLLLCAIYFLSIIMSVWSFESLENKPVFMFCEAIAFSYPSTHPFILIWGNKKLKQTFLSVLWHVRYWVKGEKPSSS
# [4] = biological target: T4, Taste receptor type 2 member 31 (Homo sapiens) (UniProt P59538); assay: Agonist activity at human TAS2R44 expressed in HEK293T cells co-expressing Galpha15 assessed as increase in intracellular calcium level at 20 mM by Calcium-3 dye based fluorescence assay relative to control
# T4 sequence (whole entry): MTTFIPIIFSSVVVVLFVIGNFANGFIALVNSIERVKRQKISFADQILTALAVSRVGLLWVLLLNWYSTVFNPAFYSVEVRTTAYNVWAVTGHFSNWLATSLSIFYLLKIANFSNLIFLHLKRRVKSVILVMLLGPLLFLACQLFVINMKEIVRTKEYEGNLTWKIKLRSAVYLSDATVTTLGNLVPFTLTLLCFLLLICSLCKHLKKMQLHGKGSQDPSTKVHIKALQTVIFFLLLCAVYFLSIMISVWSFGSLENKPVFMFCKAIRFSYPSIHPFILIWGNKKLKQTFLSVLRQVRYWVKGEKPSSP
# [5] = biological target: T5, Taste receptor type 2 member 42 (Homo sapiens) (UniProt Q7RTR8); assay: Agonist activity at human TAS2R55 expressed in HEK293T cells co-expressing Galpha15 assessed as increase in intracellular calcium level at 20 mM by Calcium-3 dye based fluorescence assay relative to control
# T5 sequence (whole entry): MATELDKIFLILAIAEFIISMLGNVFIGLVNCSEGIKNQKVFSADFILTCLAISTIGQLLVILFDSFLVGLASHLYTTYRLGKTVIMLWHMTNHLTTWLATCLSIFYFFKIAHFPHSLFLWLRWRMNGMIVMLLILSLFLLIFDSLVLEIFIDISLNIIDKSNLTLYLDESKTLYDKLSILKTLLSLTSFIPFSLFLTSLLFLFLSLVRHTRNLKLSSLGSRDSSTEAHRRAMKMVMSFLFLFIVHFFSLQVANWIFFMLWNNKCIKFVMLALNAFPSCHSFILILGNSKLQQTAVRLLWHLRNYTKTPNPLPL
# [6] = biological target: T6, Taste receptor type 2 member 16 (Homo sapiens) (UniProt Q9NYV7); assay: Agonist activity at human TAS2R16 expressed in HEK293T cells co-expressing Galpha15 assessed as increase in intracellular calcium level at 20 mM by Calcium-3 dye based fluorescence assay relative to control
# T6 sequence (whole entry): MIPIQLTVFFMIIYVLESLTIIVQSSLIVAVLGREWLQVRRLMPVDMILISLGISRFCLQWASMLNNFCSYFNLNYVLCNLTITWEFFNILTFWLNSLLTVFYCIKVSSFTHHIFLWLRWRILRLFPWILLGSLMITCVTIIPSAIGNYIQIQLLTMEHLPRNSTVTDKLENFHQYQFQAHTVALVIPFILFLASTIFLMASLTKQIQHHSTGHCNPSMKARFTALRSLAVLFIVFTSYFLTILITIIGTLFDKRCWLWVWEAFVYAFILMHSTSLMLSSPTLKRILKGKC
# [7] = biological target: T7, Taste receptor type 2 member 60 (Homo sapiens) (UniProt P59551); assay: Agonist activity at human TAS2R60 expressed in HEK293T cells co-expressing Galpha15 assessed as increase in intracellular calcium level at 20 mM by Calcium-3 dye based fluorescence assay relative to control
# T7 sequence (whole entry): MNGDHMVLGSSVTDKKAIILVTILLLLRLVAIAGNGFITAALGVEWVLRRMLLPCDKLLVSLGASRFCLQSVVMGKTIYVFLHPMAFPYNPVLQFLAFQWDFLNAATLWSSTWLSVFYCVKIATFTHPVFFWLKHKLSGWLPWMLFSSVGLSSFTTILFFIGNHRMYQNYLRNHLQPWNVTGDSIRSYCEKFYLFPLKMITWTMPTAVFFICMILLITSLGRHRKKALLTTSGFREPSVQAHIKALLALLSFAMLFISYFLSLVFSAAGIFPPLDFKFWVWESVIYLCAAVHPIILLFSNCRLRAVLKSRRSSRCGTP
Activity [1] [%],Activity [2] [%],Activity [3] [%],Activity [4] [%],Activity [5] [%],Activity [6] [%],Activity [7] [%],Compound
< 40,< 40,< 40,> 40,< 40,> 40,< 40,CC1=CC(=O)NS(=O)(=O)O1
< 40,< 40,> 40,> 40,< 40,< 40,> 40,CC(O)C(=O)[O-].[K+] (stereo unspecified)
< 40,< 40,< 40,> 40,< 40,< 40,> 40,[Cl-].[K+] [POTASSIUM CHLORIDE]
